Experiments:
Assay in all cases: KinaseProfiler off-target kinase profiling
Format in all cases: biochemical
Details in all cases: 10 μM, ATP near Km
WNK3 = biological target: T1, WNK3 (Homo sapiens, UniProt Q9BYP7)
T1 construct: purchased Millipore, Inc. (KinaseProfiler service)
Method in brief: (§1)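 Compound tested at one concentration, 10 μM, across the complete panel. Replicates: two. ATP: near Km, kinase by kinase. Reported value: averaged percent of control.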

CK2alpha2 = biological target: T2, CK2alpha2 (Homo sapiens, UniProt P19784)
T2 construct: purchased Millipore, Inc. (KinaseProfiler service)
Method in brief: as §1

SGK3 = biological target: T3, SGK3 (Homo sapiens, UniProt Q96BR1)
T3 construct: purchased Millipore, Inc. (KinaseProfiler service)
Method in brief: as §1

TLK2 = biological target: T4, TLK2 (Homo sapiens, UniProt Q86UE8)
T4 construct: purchased Millipore, Inc. (KinaseProfiler service)
Method in brief: as §1

MSSK1 = biological target: T5, MSSK1 (Homo sapiens, UniProt Q9UPE1)
T5 construct: purchased Millipore, Inc. (KinaseProfiler service)
Method in brief: as §1

FGFR2 = biological target: T6, FGFR2 (Homo sapiens, UniProt P21802)
T6 construct: purchased Millipore, Inc. (KinaseProfiler service)
Method in brief: as §1

CAMK2g = biological target: T7, CAMK2g (Homo sapiens, UniProt Q13555)
T7 construct: purchased Millipore, Inc. (KinaseProfiler service)
Method in brief: as §1

DMPK = biological target: T8, DMPK (Homo sapiens, UniProt Q09013)
T8 construct: purchased Millipore, Inc. (KinaseProfiler service)
Method in brief: as §1

DAPK2 = biological target: T9, DAPK2 (Homo sapiens, UniProt Q9UIK4)
T9 construct: purchased Millipore, Inc. (KinaseProfiler service)
Method in brief: as §1

PAK5 = biological target: T10, PAK5 (Homo sapiens, UniProt Q9P286)
T10 construct: purchased Millipore, Inc. (KinaseProfiler service)
Method in brief: as §1

SGK1 = biological target: T11, SGK1 (Homo sapiens, UniProt O00141, S422D)
T11 construct: purchased Millipore, Inc. (KinaseProfiler service)
Method in brief: as §1

MAP3K5 = biological target: T12, MAP3K5 (Homo sapiens, UniProt Q99683)
T12 construct: purchased Millipore, Inc. (KinaseProfiler service)
Method in brief: as §1

STK33 = biological target: T13, STK33 (Homo sapiens, UniProt Q9BYT3)
T13 construct: purchased Millipore, Inc. (KinaseProfiler service)
Method in brief: as §1

Plk1 = biological target: T14, Plk1 (Homo sapiens, UniProt P53350)
T14 construct: purchased Millipore, Inc. (KinaseProfiler service)
Method in brief: as §1

GSK3beta = biological target: T15, GSK3beta (Homo sapiens, UniProt P49841)
T15 construct: purchased Millipore, Inc. (KinaseProfiler service)
Method in brief: as §1

IRAK4 = biological target: T16, IRAK4 (Homo sapiens, UniProt Q9NWZ3)
T16 construct: purchased Millipore, Inc. (KinaseProfiler service)
Method in brief: as §1

PKCalpha = biological target: T17, PKCalpha (Homo sapiens, UniProt P17252)
T17 construct: purchased Millipore, Inc. (KinaseProfiler service)
Method in brief: as §1

GSK3alpha = biological target: T18, GSK3alpha (Homo sapiens, UniProt P49840)
T18 construct: purchased Millipore, Inc. (KinaseProfiler service)
Method in brief: as §1

NEK3 = biological target: T19, NEK3 (Homo sapiens, UniProt P51956)
T19 construct: purchased Millipore, Inc. (KinaseProfiler service)
Method in brief: as §1

p38beta = biological target: T20, p38beta (Homo sapiens, UniProt Q15759)
T20 construct: purchased Millipore, Inc. (KinaseProfiler service)
Method in brief: as §1

CDK5/p35 = biological target: T21, CDK5/p35 (Homo sapiens, UniProt Q00535)
T21 construct: purchased Millipore, Inc. (KinaseProfiler service)
Method in brief: as §1

CK2 = biological target: T22, CK2 (Homo sapiens, UniProt P68400)
T22 construct: purchased Millipore, Inc. (KinaseProfiler service)
Method in brief: as §1

Hck = biological target: T23, Hck (Homo sapiens, UniProt P08631)
T23 construct: purchased Millipore, Inc. (KinaseProfiler service)
Method in brief: as §1

IKKbeta = biological target: T24, IKKbeta (Homo sapiens, UniProt O14920)
T24 construct: purchased Millipore, Inc. (KinaseProfiler service)
Method in brief: as §1

MINK = biological target: T25, MINK (Homo sapiens, UniProt Q8N4C8)
T25 construct: purchased Millipore, Inc. (KinaseProfiler service)
Method in brief: as §1

CLK2 = biological target: T26, CLK2 (Homo sapiens, UniProt P49760)
T26 construct: purchased Millipore, Inc. (KinaseProfiler service)
Method in brief: as §1

CAMK2d = biological target: T27, CAMK2d (Homo sapiens, UniProt Q13557)
T27 construct: purchased Millipore, Inc. (KinaseProfiler service)
Method in brief: as §1

EphB4 = biological target: T28, EphB4 (Homo sapiens, UniProt P54760)
T28 construct: purchased Millipore, Inc. (KinaseProfiler service)
Method in brief: as §1

Pim-1 = biological target: T29, Pim-1 (Homo sapiens, UniProt P11309)
T29 construct: purchased Millipore, Inc. (KinaseProfiler service)
Method in brief: as §1

p38gamma = biological target: T30, p38gamma (Homo sapiens, UniProt P53778)
T30 construct: purchased Millipore, Inc. (KinaseProfiler service)
Method in brief: as §1

AURKA = biological target: T31, AURKA (Homo sapiens, UniProt O14965)
T31 construct: purchased Millipore, Inc. (KinaseProfiler service)
Method in brief: as §1

Rsk1 = biological target: T32, Rsk1 (Homo sapiens, UniProt Q15418)
T32 construct: purchased Millipore, Inc. (KinaseProfiler service)
Method in brief: as §1

ULK3 = biological target: T33, ULK3 (Homo sapiens, UniProt Q6PHR2)
T33 construct: purchased Millipore, Inc. (KinaseProfiler service)
Method in brief: as §1

MST1 = biological target: T34, MST1 (Homo sapiens, UniProt Q13043)
T34 construct: purchased Millipore, Inc. (KinaseProfiler service)
Method in brief: as §1

DYRK2 = biological target: T35, DYRK2 (Homo sapiens, UniProt Q92630)
T35 construct: purchased Millipore, Inc. (KinaseProfiler service)
Method in brief: as §1

MKK6 = biological target: T36, MKK6 (Homo sapiens, UniProt P52564)
T36 construct: purchased Millipore, Inc. (KinaseProfiler service)
Method in brief: as §1

PDGFRbeta = biological target: T37, PDGFRbeta (Homo sapiens, UniProt P09619)
T37 construct: purchased Millipore, Inc. (KinaseProfiler service)
Method in brief: as §1

PrKX = biological target: T38, PrKX (Homo sapiens, UniProt P51817)
T38 construct: purchased Millipore, Inc. (KinaseProfiler service)
Method in brief: as §1

MST3 = biological target: T39, MST3 (Homo sapiens, UniProt Q9Y6E0)
T39 construct: purchased Millipore, Inc. (KinaseProfiler service)
Method in brief: as §1

ROCK-I = biological target: T40, ROCK-I (Homo sapiens, UniProt Q13464)
T40 construct: purchased Millipore, Inc. (KinaseProfiler service)
Method in brief: as §1

MEK1 = biological target: T41, MEK1 (Homo sapiens, UniProt Q02750)
T41 construct: purchased Millipore, Inc. (KinaseProfiler service)
Method in brief: as §1

T14 sequence (P53350 whole entry): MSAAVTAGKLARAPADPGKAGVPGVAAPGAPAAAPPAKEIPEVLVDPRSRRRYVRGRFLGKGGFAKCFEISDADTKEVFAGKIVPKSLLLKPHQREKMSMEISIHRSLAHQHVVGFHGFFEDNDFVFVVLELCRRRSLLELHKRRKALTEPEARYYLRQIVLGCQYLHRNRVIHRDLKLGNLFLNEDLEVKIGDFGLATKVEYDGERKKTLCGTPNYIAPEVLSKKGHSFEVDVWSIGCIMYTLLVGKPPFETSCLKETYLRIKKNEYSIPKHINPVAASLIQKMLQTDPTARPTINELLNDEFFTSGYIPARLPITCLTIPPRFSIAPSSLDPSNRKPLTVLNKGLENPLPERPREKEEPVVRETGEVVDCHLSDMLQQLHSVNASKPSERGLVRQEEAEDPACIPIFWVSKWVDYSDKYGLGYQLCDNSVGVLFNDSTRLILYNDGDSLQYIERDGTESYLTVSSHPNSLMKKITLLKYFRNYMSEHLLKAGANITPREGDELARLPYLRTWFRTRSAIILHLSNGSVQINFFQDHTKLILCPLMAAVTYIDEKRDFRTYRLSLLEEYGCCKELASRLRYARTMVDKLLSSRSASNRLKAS
T10 sequence (Q9P286 whole entry): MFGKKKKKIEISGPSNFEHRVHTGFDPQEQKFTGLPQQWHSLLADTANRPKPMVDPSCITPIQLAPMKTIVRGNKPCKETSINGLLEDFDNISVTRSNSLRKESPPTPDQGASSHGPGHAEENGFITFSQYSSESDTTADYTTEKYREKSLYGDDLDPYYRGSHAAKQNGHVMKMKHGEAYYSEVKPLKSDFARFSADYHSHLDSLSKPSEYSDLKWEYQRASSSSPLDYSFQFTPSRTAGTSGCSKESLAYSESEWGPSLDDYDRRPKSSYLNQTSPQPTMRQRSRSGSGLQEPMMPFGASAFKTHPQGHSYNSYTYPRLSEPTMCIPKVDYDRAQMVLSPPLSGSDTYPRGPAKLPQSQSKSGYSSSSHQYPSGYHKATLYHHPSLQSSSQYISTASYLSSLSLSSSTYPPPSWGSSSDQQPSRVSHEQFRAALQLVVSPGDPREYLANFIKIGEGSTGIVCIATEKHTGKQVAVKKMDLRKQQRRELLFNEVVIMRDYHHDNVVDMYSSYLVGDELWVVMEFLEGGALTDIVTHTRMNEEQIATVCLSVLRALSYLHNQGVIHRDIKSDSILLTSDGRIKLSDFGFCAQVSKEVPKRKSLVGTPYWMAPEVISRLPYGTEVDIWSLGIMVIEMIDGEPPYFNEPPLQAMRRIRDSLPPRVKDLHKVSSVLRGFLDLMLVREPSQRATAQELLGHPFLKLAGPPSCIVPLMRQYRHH
T4 sequence (Q86UE8 whole entry): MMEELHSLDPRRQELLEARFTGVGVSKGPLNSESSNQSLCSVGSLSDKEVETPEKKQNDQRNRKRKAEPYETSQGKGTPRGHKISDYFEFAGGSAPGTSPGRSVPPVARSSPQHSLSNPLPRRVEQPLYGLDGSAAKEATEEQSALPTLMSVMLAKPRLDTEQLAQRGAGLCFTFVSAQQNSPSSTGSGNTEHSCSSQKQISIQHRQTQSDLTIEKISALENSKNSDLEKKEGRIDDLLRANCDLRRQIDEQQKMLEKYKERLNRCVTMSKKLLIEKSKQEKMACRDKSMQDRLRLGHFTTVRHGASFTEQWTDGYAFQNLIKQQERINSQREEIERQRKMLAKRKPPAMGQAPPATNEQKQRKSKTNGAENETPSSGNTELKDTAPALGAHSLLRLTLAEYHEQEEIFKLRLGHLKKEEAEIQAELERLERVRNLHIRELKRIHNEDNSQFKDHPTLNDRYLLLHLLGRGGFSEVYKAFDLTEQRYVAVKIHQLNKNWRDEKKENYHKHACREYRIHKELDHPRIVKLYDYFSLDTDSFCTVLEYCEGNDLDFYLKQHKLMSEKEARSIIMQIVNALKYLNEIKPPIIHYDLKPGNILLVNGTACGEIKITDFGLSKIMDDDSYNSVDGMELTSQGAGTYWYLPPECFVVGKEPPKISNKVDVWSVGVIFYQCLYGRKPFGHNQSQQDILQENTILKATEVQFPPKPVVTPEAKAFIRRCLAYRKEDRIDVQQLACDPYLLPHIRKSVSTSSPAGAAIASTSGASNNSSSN
T2 sequence (P19784 whole entry): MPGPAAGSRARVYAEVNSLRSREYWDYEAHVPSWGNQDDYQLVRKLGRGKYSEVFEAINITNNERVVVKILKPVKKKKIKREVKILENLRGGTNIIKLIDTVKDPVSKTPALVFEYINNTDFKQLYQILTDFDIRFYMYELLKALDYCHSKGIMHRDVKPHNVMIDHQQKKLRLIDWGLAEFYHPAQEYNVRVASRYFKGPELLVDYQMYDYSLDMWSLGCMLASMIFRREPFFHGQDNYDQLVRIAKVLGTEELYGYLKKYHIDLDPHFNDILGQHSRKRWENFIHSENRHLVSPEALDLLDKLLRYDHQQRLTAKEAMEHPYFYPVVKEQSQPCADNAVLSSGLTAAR
T24 sequence (O14920 whole entry): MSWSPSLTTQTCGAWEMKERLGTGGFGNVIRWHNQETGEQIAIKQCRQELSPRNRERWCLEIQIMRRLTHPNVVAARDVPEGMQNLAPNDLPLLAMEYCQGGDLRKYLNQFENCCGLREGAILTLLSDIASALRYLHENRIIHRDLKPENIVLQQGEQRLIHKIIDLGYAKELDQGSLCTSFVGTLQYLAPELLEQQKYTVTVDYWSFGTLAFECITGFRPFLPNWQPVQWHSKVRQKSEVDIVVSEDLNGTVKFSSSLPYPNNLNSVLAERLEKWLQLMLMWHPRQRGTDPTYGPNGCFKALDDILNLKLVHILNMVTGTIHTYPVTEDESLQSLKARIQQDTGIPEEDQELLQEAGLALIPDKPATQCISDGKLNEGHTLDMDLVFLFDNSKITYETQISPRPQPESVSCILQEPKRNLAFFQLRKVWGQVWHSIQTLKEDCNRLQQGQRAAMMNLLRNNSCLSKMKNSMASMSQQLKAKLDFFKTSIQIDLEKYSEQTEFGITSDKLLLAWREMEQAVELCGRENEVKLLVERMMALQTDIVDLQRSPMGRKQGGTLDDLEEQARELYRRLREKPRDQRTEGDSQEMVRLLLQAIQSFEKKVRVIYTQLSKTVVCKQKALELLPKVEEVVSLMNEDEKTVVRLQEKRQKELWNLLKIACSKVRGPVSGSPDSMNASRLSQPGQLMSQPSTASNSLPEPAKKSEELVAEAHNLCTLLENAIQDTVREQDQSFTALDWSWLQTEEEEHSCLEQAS
T3 sequence (Q96BR1 whole entry): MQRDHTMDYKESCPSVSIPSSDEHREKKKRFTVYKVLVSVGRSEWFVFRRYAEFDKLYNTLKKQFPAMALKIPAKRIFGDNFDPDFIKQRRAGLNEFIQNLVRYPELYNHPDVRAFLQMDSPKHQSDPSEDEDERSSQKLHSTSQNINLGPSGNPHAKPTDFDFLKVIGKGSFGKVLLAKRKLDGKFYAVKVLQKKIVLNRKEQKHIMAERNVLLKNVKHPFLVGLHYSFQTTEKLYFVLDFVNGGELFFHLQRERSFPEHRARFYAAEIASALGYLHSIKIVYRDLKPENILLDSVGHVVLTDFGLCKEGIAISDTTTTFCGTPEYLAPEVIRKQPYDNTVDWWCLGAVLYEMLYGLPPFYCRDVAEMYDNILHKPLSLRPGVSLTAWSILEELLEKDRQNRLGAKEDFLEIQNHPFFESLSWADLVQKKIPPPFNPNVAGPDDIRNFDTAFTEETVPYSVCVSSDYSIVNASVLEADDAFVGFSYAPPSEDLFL
T27 sequence (Q13557 whole entry): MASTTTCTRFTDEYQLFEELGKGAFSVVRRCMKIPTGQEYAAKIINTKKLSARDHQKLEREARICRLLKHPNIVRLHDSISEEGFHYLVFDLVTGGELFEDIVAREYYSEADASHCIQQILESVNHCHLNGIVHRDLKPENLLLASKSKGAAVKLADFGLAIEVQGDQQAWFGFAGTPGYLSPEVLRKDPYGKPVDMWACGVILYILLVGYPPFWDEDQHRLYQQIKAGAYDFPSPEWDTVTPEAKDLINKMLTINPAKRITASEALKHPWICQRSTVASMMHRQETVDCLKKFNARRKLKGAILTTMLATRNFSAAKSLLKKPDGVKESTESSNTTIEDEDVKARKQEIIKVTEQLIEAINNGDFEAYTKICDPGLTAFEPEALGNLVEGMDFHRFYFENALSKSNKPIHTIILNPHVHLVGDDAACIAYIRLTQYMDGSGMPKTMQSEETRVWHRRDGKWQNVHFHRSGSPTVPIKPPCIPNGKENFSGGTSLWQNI
T9 sequence (Q9UIK4 whole entry): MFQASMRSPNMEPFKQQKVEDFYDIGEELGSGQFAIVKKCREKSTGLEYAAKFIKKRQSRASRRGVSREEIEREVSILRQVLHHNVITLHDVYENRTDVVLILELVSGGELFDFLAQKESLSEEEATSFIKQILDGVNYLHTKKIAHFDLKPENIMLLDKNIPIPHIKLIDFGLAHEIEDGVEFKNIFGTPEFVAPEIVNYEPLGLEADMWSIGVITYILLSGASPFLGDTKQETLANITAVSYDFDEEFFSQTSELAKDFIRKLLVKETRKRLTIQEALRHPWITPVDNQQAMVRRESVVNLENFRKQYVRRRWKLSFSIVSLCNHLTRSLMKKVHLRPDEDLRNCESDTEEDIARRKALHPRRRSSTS
T31 sequence (O14965 whole entry): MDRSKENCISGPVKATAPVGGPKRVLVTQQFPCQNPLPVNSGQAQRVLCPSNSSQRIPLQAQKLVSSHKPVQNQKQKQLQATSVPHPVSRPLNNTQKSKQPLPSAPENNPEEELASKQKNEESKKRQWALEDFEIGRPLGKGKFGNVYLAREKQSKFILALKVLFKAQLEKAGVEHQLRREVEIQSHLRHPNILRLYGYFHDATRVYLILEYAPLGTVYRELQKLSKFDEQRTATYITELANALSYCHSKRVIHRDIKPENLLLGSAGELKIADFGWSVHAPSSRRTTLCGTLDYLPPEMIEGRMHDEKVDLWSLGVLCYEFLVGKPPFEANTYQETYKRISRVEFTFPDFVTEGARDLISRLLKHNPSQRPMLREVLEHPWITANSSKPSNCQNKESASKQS

Q: Which “Avg POC” value (WNK3) does the source give for `COCCN1C[C@@H](NC(=O)Nc2sc(C(C)C)nc2-c2ccccc2)[C@H](c2ccccc2)C1` [Example 48, 1-(2-isopropyl-4-phenylthiazol-5-yl)-3-((3S,4R)-1-(2-methoxyethyl)-4-phenylpyrrolidin-3-yl)urea] here?
A: Its value is 99.5% of control.

Q: What about the “Avg POC” value (CK2alpha2) of the same compound?
A: Its value is 113% of control.

Q: What about the “Avg POC” value (SGK3) of the same compound?
A: Its value is 82% of control.

Q: What about the “Avg POC” value (TLK2) of the same compound?
A: Its value is 98% of control.

Q: What about the “Avg POC” value (MSSK1) of the same compound?
A: Its value is 94% of control.

Q: And the “Avg POC” value (FGFR2)?
A: The value was 106.5% of control.

Q: What about the “Avg POC” value (CAMK2g) of the same compound?
A: Its value is 116% of control.

Q: And the “Avg POC” value (DMPK)?
A: Its value is 106% of control.

Q: What about the “Avg POC” value (DAPK2) of the same compound?
A: The value was 99% of control.

Q: What about the “Avg POC” value (PAK5) of the same compound?
A: The value was 113% of control.

Q: What about the “Avg POC” value (SGK1) of the same compound?
A: Its value is 125% of control.

Q: What about the “Avg POC” value (MAP3K5) of the same compound?
A: The value was 102.5% of control.

Q: And the “Avg POC” value (STK33)?
A: Its value is 110% of control.

Q: What about the “Avg POC” value (Plk1) of the same compound?
A: Its value is 93% of control.

Q: And the “Avg POC” value (GSK3beta)?
A: The value was 63% of control.

Q: And the “Avg POC” value (IRAK4)?
A: The value was 88% of control.

Q: What about the “Avg POC” value (PKCalpha) of the same compound?
A: Its value is 106.5% of control.

Q: And the “Avg POC” value (GSK3alpha)?
A: The value was 120.5% of control.

Q: What about the “Avg POC” value (NEK3) of the same compound?
A: Its value is 129% of control.

Q: And the “Avg POC” value (p38beta)?
A: Its value is 115% of control.

Q: What about the “Avg POC” value (CDK5/p35) of the same compound?
A: Its value is 109.5% of control.

Q: And the “Avg POC” value (CK2)?
A: The value was 106% of control.

Q: And the “Avg POC” value (Hck)?
A: Its value is 115.5% of control.

Q: And the “Avg POC” value (IKKbeta)?
A: The value was 96% of control.

Q: And the “Avg POC” value (MINK)?
A: The value was 117% of control.

Q: And the “Avg POC” value (CLK2)?
A: Its value is 116% of control.

Q: What about the “Avg POC” value (CAMK2d) of the same compound?
A: Its value is 99% of control.

Q: And the “Avg POC” value (EphB4)?
A: The value was 99% of control.

Q: And the “Avg POC” value (Pim-1)?
A: Its value is 134% of control.

Q: What about the “Avg POC” value (p38gamma) of the same compound?
A: Its value is 120.5% of control.

Q: And the “Avg POC” value (AURKA)?
A: The value was 133% of control.

Q: And the “Avg POC” value (Rsk1)?
A: Its value is 121% of control.

Q: What about the “Avg POC” value (ULK3) of the same compound?
A: The value was 100% of control.

Q: And the “Avg POC” value (MST1)?
A: The value was 93.5% of control.

Q: And the “Avg POC” value (DYRK2)?
A: The value was 103.5% of control.

Q: And the “Avg POC” value (MKK6)?
A: The value was 121% of control.

Q: What about the “Avg POC” value (PDGFRbeta) of the same compound?
A: Its value is 103.5% of control.

Q: And the “Avg POC” value (PrKX)?
A: Its value is 122% of control.

Q: And the “Avg POC” value (MST3)?
A: Its value is 97% of control.

Q: What about the “Avg POC” value (ROCK-I) of the same compound?
A: The value was 103.5% of control.

Q: And the “Avg POC” value (MEK1)?
A: The value was 100% of control.

From US9828360B2 (Array BioPharma Inc., priority 2012, dated 2017)
